From patent US20260184726A1, “HETEROCYCLIC COMPOUNDS AS KINASE INHIBITORS, COMPOSITIONS, AND METHODS OF USE THEREOF” (JS INNOMED HOLDINGS LTD., priority 2022, published 2026) come the findings set out here.

One test concerns the target T1, human RET kinase (Homo sapiens, UniProt P07949).
T1 construct: purchased Carna 08-159
Put plainly: RET Kinase Assay (mobility shift assay, ATP at Km). It is filed as biochemical. Particulars: 23 μM ATP (Km), read-out: RET Enzymatic Activity. How it is done: Compounds were tested by Mobility shift assay with ATP concentration at Km. The assay used human RET kinase (Carna 08-159). Test compounds were prepared and diluted in DMSO in 3-fold serial dilutions to 50× of the final testing concentrations. The compounds were then further diluted to 5× by the kinase reaction buffer (50 mM HEPES pH 7.5, 0.0015% Brij-35). The enzymatic reaction for compound testing was performed in a white 384-well polypropylene plate (Corning 3573) with a total reaction volume of 25 μl containing 7 nM RET, 3 μM peptide substrate FAM-P2 (GL Biochem 112394), and 23 μM ATP (Sigma A7699-1G). The assay started with loading RET diluted in kinase reaction buffer to wells, followed by addition of equal volume of 5× compounds for 15-min incubation at the room temperature for pre-treatment. The enzymatic reaction was initiated by addition of mixture of the substrate and ATP prepared in kinase reaction buffer. After incubation at 28° C. for one hour, 25 μl of stopper buffer (a mixture of 100 mM HEPES pH 7.5 buffer, 0.015% Brij-35, 50 mM EDTA and 0.2% of coating reagent 3 (Cliper Lifesciences)). After 30 minutes of incubation at room temperature, the plate was read in a Caliper. Percent of control was calculated as the percentage of compound-treated vs 2% DMSO vehicle-treated. The dose-response curves were generated and the IC50 values were calculated by nonlinear sigmoid curve fitting using XLFit.

For a further test, the target named is T2, human Aurora B kinase (Homo sapiens, UniProt Q96GD4).
T2 construct: purchased Carna 05-102
T2 sequence (Q96GD4 whole entry): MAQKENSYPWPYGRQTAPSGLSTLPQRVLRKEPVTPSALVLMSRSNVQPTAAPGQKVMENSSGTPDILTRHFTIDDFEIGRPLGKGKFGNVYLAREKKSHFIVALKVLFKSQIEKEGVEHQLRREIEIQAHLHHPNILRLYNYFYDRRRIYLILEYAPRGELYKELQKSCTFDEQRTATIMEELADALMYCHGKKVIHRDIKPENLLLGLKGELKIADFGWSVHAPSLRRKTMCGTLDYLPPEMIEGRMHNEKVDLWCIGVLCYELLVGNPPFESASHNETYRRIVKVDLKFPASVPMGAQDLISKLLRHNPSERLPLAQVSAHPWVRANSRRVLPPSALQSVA
T2 sequence (Q9NQS7 803-918 partner limits assumed): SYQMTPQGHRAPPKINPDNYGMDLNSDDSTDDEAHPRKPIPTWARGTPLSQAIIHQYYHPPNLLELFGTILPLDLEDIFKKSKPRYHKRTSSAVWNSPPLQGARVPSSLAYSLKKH
As to the kind of experiment: Aurora B Kinase Assay (mobility shift assay, ATP at Km). Type of test: biochemical. Particulars: 15 μM ATP (Km), read-out: AurB Enzymatic Activity. The protocol:
Compounds were tested by Mobility shift assay with ATP concentration at Km. The assay used human Aurora B kinase (Carna 05-102). Test compounds were prepared and diluted in DMSO in 3-fold serial dilutions to 50× of the final testing concentrations. The compounds were then further diluted to 5× by the kinase reaction buffer (50 mM HEPES pH 7.5, 0.0015% Brij-35). The enzymatic reaction for compound testing was performed in a white 384-well polypropylene plate (Corning 3573) with a total reaction volume of 25 μl containing 9 nM Aurora B, 3 μM peptide substrate FAM-P21 (GL Biochem 116370), and 15 μM ATP (Sigma A7699-1G). The assay started with loading Aurora B diluted in kinase reaction buffer to wells, followed by addition of equal volume of 5× compounds for 15-min incubation at the room temperature for pre-treatment. The enzymatic reaction was initiated by addition of mixture of the substrate and ATP prepared in kinase reaction buffer. After incubation at 28° C. for one hour, 25 μl of stopper buffer (a mixture of 100 mM HEPES pH 7.5 buffer, 0.015% Brij-35, 50 mM EDTA and 0.2% of coating reagent 3 (Cliper Lifesciences)). After 30 minutes of incubation at room temperature, the plate was read in a Caliper. Percent of control was calculated as the percentage of compound-treated vs 2% DMSO vehicle-treated. The dose-response curves were generated and the IC50 values were calculated by nonlinear sigmoid curve fitting using XLFit.

A further test has as its system BAF3 cells. As to the kind of experiment: BAF3 Cell Proliferation Assay (CellTiter-Glo, without RET driven, IL-3). It is filed as cell-based. Conditions: Mus musculus; growth inhibition in BAF3 cells, 72 hours, with IL-3; read-out: BAF3 Cellular Activity. How it is done: Compounds disclosed herein were tested for the inhibition BAF3 cells proliferation without RET driven by CellTiter-Glo assay. In this assay, a complete media was prepared by adding 10% fetal bovine serum and 1 ng/ml IL-3 to RPMI-1640 medium (Life technology) for BAF3 cells. BAF3 cells were added to each of 88 wells of a 96 well plate at a seeding density of 2,000 cells/well/95 μL. The cells were allowed to attach to the plate by incubating at 37° C. for 24 hours. The compound was dissolved in DMSO (SIGMA). A solution of test compound was prepared in complete media by serial dilution to obtain the following concentrations: 200 μM, 66.7 μM, 22.2 μM, 7.4 μM, 2.5 μM, 0.82 μM, 0.27 μM, 0.091 μM and […]. The test compound solution (5 μL) was added to each of 80 cell-containing wells. The final concentrations of the compound were following: 10 μM, 3.33 μM, 1.11 μM, 0.37 μM, 0.12 μM, 0.041 μM, 0.014 μM, 0.0046 μM and 0.0015 μM. The final concentration of DMSO is 0.1%. To the 8 remaining cell-containing wells, only complete media (containing 0.1% DMSO) was added to form a control group in order to measure maximal proliferation. To the remaining 8 empty wells, complete media was added to for a vehicle control group in order to measure background. The plates were incubated at 37° C. for 72 hours. 50 μl of CellTiter-Glo® Reagent was added to each well. The contents were mixed for 2 minutes on an orbital shaker to induce cell lysis, and then were incubated at room temperature for 10 minutes to stabilize luminescent signal. Luminescence was recorded on Paradigm. Cell viability (CV %) was calculated relative to vehicle (DMSO) treated control wells. The IC50 was calculated using GraphPad Prism.
Background: In ATP-based viability assays light output follows the ATP content of the culture.

Another test addresses T3, BAF3-KIF5B-RET cells (Homo sapiens, UniProt P07949).
T3 construct: fused on or other part: P33176 (Kinesin-1 heavy chain)
As to the kind of experiment: BAF3-KIF5B-RET Cell Proliferation Assay (CellTiter-Glo). It is filed as cell-based. Particulars: growth inhibition, 72 hours; Table 2; read-out: BA/F3-KIF5B-RET Cellular activity. How it is done:
Compounds disclosed herein were tested for the inhibition of RET by a cancer cell proliferation assay commonly known as CellTiter-Glo assay. In this assay, a complete media was prepared by adding 10% fetal bovine serum to RPMI-1640 medium (Life technology) for RET-driven cancer cells (BAF3-FIF5B-RET, Ba/F3-KIF5B-RET-G810R, Ba/F3-TEL-RET-M918T or Ba/F3-KIF5B-RET-V804M). Individual RET-driven type of cells were added to each of 88 wells of a 96 well plate at a seeding density of 2,000 cells/well/95 μL. The cells were allowed to attach to the plate by incubating at 37° C. for 24 hours. The compound was dissolved in DMSO (SIGMA). A solution of test compound was prepared in complete media by serial dilution to obtain the following concentrations: 20 μM, 6.67 μM, 2.22 μM, 0.74 μM, 0.25 μM, 0.082 μM, 0.027 μM, 0.0091 μM and 0.0030 μM. The test compound solution (5 μL) was added to each of 80 cell-containing wells. The final concentrations of the compound were following: 1 μM, 0.33 μM, 0.11 μM, 0.037 μM, 0.012 μM, 0.0041 μM, 0.0014 μM, 0.00046 μM and 0.00015 μM. The final concentration of DMSO is 0.1%. To the 8 remaining cell-containing wells, only complete media (containing 0.1% DMSO) was added to form a control group in order to measure maximal proliferation. To the remaining 8 empty wells, complete media was added to for a vehicle control group in order to measure background. The plates were incubated at 37° C. for 72 hours. 50 μl of CellTiter-Glo® Reagent was added to each well. Mix contents for 2 minutes on an orbital shaker to induce cell lysis. Incubate at room temperature for 10 minutes to stabilize luminescent signal. Record luminescence on Paradigm. Cell viability (CV %) was calculated relative to vehicle (DMSO) treated control wells. The IC50 was calculated using GraphPad Prism.

Another test addresses T4, human KDR kinase (Homo sapiens, UniProt P35968).
T4 construct: purchased Carna 08-191
Put plainly: KDR Kinase Assay (mobility shift assay, ATP at Km). Type of test: biochemical. Conditions: 92 μM ATP (Km), read-out: KDR Enzymatic Activity. How it is done:
Compounds were tested by Mobility shift assay with ATP concentration at Km. The assay used human KDR kinase (Carna 08-191). Test compounds were prepared and diluted in DMSO in 3-fold serial dilutions to 50× of the final testing concentrations. The compounds were then further diluted to 5× by the kinase reaction buffer (50 mM HEPES pH 7.5, 0.0015% Brij-35). The enzymatic reaction for compound testing was performed in a white 384-well polypropylene plate (Corning 3573) with a total reaction volume of 25 μl containing 1.2 nM KDR, 3 μM peptide substrate FAM-P22 (GL Biochem 112393), and 92 μM ATP (Sigma A7699-1G). The assay started with loading RET diluted in kinase reaction buffer to wells, followed by addition of equal volume of 5× compounds for 15-min incubation at the room temperature for pre-treatment. The enzymatic reaction was initiated by addition of mixture of the substrate and ATP prepared in kinase reaction buffer. After incubation at 28° C. for one hour, 25 μl of stopper buffer (a mixture of 100 mM HEPES pH 7.5 buffer, 0.015% Brij-35, 50 mM EDTA and 0.2% of coating reagent 3 (Cliper Lifesciences)). After 30 minutes of incubation at room temperature, the plate was read in a Caliper. Percent of control was calculated as the percentage of compound-treated vs 2% DMSO vehicle-treated. The dose-response curves were generated and the IC50s were calculated by nonlinear sigmoid curve fitting using XLFit.

T1 sequence (P07949 29-1114): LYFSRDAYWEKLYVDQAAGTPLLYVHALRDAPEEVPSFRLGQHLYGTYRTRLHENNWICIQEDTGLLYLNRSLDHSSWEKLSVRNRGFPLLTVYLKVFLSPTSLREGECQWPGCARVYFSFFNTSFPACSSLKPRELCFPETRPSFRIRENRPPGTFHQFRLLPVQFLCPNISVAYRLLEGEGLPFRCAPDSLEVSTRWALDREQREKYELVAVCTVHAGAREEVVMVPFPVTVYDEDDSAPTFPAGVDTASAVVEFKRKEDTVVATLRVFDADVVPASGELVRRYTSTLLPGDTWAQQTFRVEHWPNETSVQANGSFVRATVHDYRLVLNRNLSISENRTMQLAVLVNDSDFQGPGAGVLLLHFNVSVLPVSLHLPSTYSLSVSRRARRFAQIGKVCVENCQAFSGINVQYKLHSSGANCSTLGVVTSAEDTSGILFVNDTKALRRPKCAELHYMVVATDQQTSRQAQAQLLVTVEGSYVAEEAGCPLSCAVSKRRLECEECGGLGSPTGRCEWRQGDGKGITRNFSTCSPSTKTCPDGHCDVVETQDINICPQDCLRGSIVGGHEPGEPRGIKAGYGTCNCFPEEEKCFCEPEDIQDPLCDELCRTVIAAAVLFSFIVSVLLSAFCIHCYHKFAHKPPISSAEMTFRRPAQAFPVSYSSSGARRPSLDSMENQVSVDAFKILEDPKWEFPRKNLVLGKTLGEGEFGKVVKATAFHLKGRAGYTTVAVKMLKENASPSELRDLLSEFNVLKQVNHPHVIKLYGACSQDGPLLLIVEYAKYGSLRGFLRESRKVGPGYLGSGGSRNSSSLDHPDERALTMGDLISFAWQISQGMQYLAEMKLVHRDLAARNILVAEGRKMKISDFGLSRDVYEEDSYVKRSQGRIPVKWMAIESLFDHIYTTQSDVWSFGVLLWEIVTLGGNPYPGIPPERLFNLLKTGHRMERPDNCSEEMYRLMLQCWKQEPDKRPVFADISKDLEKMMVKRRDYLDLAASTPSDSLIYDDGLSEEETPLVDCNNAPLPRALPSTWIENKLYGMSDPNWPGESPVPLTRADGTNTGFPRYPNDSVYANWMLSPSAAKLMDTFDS
T3 sequence (P07949 whole entry, change not shown, the tested form may be a part): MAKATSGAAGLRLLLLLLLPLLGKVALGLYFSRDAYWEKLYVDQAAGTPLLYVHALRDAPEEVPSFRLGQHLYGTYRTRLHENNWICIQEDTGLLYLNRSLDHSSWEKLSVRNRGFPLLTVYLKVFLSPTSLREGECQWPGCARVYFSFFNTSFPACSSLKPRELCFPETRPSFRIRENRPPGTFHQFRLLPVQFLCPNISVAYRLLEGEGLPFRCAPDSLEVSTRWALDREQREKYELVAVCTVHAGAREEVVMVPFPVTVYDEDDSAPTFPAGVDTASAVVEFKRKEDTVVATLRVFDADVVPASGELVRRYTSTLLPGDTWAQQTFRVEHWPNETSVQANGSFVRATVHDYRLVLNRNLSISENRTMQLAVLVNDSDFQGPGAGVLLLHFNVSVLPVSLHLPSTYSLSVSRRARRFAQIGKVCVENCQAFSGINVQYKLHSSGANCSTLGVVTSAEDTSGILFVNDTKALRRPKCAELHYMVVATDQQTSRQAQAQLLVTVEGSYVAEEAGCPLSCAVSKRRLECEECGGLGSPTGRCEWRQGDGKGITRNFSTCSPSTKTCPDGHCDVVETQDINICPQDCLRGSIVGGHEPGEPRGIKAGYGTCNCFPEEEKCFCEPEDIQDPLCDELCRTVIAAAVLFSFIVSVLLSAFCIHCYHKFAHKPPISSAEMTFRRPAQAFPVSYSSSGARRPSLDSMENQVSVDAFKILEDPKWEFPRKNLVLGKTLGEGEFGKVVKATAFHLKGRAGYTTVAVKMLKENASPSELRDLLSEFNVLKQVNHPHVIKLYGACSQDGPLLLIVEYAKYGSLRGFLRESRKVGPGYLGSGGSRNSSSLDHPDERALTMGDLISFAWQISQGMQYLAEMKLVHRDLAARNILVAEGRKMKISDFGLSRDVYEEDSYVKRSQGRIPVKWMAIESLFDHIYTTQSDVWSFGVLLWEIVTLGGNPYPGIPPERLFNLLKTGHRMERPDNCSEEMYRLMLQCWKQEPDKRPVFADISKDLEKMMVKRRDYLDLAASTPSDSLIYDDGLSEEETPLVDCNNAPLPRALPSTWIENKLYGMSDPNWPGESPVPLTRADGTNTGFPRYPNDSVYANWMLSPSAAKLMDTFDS
T4 sequence (P35968 20-1356): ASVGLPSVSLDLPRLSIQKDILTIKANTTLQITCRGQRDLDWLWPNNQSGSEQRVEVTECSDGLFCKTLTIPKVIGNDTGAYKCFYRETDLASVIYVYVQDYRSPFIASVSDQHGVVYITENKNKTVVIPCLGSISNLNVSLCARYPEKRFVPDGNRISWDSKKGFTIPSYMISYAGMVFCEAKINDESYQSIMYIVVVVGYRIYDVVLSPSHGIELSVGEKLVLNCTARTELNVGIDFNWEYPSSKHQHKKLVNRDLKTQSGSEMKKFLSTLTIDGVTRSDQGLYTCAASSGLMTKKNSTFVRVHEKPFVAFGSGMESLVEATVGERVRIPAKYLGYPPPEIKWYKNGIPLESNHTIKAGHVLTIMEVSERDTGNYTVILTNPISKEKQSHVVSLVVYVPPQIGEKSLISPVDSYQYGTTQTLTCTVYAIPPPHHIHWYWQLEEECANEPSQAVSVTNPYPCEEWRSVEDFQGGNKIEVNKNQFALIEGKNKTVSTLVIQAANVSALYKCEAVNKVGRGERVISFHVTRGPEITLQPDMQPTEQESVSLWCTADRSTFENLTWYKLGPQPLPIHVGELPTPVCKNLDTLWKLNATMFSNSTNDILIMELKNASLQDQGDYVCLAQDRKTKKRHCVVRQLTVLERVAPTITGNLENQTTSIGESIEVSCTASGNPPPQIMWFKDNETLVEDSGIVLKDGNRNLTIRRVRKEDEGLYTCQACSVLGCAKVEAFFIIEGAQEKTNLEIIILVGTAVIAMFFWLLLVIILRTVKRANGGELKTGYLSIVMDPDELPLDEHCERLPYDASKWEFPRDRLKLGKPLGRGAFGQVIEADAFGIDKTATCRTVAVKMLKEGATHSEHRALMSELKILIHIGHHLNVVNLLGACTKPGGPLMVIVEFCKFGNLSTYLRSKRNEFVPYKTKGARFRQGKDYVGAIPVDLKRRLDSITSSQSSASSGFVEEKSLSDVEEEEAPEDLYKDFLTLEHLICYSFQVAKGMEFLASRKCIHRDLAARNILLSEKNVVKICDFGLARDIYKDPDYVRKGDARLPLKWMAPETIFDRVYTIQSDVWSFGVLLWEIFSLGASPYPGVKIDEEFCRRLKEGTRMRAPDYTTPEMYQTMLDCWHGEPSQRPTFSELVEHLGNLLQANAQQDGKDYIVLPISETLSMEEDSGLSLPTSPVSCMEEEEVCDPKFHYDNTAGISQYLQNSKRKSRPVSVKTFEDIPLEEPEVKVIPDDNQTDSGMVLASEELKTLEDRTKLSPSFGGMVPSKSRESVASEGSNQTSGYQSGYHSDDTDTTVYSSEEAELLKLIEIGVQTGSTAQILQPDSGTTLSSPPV

Regarding `COc1ccc(CN2C3CC2CN(c2ccc(-c4cc(-c5ccc(C(C)(C)O)nc5)cn5ncc(C#N)c45)cn2)C3)cn1` [Example 8, 6-(6-(2-hydroxypropan-2-yl)pyridin-3-yl)-4-(6-(6-((6-methoxypyridin-3-yl)methyl)-3,6-diazabicyclo[3.1.1]heptan-3-yl)pyridin-3-yl)pyrazolo[1,5-a]pyridine-3-carbonitrile], the IC50 worked out at 0.38 nM at human RET kinase, 45 nM at human Aurora B kinase and 1050 nM in the test with BAF3 cells. Besides, the GI50 on BAF3-KIF5B-RET cells was determined as 1.4 nM.
The corresponding values for `COc1ccc(CN2C3CC2CN(c2ccc(-c4cc(-c5cnc(C(C)(C)O)nc5)cn5ncc(C#N)c45)cn2)C3)cn1` [Example 10, 6-(2-(2-hydroxypropan-2-yl)pyrimidin-5-yl)-4-(6-(6-((6-methoxypyridin-3-yl)methyl)-3,6-diazabicyclo[3.1.1]heptan-3-yl)pyridin-3-yl)pyrazolo[1,5-a]pyridine-3-carbonitrile] are 3.5 nM, 743 nM, above 10000 nM and 30.5 nM.
The corresponding values for `COc1ccc(CN2C3CC2CN(c2ccc(-c4cc(-c5ccc(C6(O)CC6)cn5)cn5ncc(C#N)c45)cn2)C3)cn1` [Example 11, 6-(5-(1-hydroxycyclopropyl)pyridin-2-yl)-4-(6-(6-((6-methoxypyridin-3-yl)methyl)-3,6-diazabicyclo[3.1.1]heptan-3-yl)pyridin-3-yl)pyrazolo[1,5-a]pyridine-3-carbonitrile] are 0.6 nM, 66.4 nM, 3060 nM and 0.9 nM.
In the case of `COc1ccc(CN2C3CC2CN(c2ccc(-c4cc(-c5ncc(C(C)(C)O)cn5)cn5ncc(C#N)c45)cn2)C3)cn1` [Example 13, 6-(5-(2-hydroxypropan-2-yl)pyrimidin-2-yl)-4-(6-(6-((6-methoxypyridin-3-yl)methyl)-3,6-diazabicyclo[3.1.1]heptan-3-yl)pyridin-3-yl)pyrazolo[1,5-a]pyridine-3-carbonitrile], the IC50 on human RET kinase is 0.4 nM; at human Aurora B kinase it was 183 nM; in the test on BAF3 cells, 2670 nM. The GI50 at BAF3-KIF5B-RET cells came to 2.2 nM.
`CC(C)(O)c1ccc(-c2cc(-c3ccc(N4C5CC6CC4CC(NC(=O)c4ncccc4Cl)(C6)C5)nc3)c3c(C#N)cnn3c2)nc1` [Example 23, 3-chloro-N-((1R,3S,5s,7s)-2-(5-(3-cyano-6-(5-(2-hydroxypropan-2-yl)pyridin-2-yl)pyrazolo[1,5-a]pyridin-4-yl)pyridin-2-yl)-2-azaadamantan-5-yl)picolinamide]: the IC50 worked out at 1.7 nM on human RET kinase, 4.2 nM at human KDR kinase and 1140 nM in the test with BAF3 cells. Besides, at BAF3-KIF5B-RET cells, the GI50 amounted to 0.5 nM.
As to `CCC(=O)c1ccc(-c2cc(-c3ccc(N4CC5CC(C4)N5Cc4ccc(OC)nc4)nc3)c3c(C#N)cnn3c2)nc1` [Example 37, 4-(6-(6-((6-methoxypyridin-3-yl)methyl)-3,6-diazabicyclo[3.1.1]heptan-3-yl)pyridin-3-yl)-6-(5-propionylpyridin-2-yl)pyrazolo[1,5-a]pyridine-3-carbonitrile], the IC50 on human RET kinase came to 0.7 nM; at human Aurora B kinase, 138 nM; with BAF3 cells it was 4460 nM. On BAF3-KIF5B-RET cells, the GI50 is 1.2 nM.
